Assay results taken from patent publication US11376261B2, “Methods for diagnosing and managing treatment of atopic dermatitis” (University of Cincinnati, priority 2017, dated 2022).
Read-outs that look alike come from different tables or passages of the source.

Tests used:
AD skin lesions [1] = assay: Pre- vs post-treatment cutaneous gene expression, betamethasone and pimecrolimus (NCBI GEO GSE32473), overlap with 89ADGES; type: in vivo, human; conditions: application to AD skin lesions, Fold Change ≥2.0, p-value<0.05
Experimental: (§1) Pre- and post-treatment gene expression datasets have been retrieved from publicly accessible database NCBI GEO, including datasets related to three widely-used treatments for AD: betamethasone and pimecrolimus (NCBI GEO data GSE32473), and dupilumab 300 mg (NCBI GEO data GSE59294).
Members of 89ADGES that are differentially regulated due to the application of betamethasone to AD skin lesions. […] CCL18, MSMB, SERPINB3 and SERPINB4 genes are associated with multiple array IDs.
BTC, CCL18, MSMB, IL-37, SERPINB3 and SERPINB4 genes are associated with multiple array IDs.
(§2) FIG. 6 is a table showing expression of members of the ECZEMA55 gene panel compared to normal skin. Expression changes are due to different treatment options. Betamethasone, pimecrolimus, and dupilumab are shown. Note direction and magnitude of treatment-related expression change for each gene. Treatment inducing change in a direction opposite to that occurring in ECZEMA55 can drive treatment-associated health benefits.

AD skin lesions [2] = assay: Pre- vs post-treatment cutaneous gene expression, dupilumab 300 mg (NCBI GEO GSE59294), overlap with 89ADGES; type: in vivo, human; conditions: administration of dupilumab 300 mg, Fold Change ≥2.0, p-value<0.05
Experimental: as §1
CCL18, IL-37, SERPINB3 and SERPINB4 genes are associated with multiple array IDs.
Samples in Dupilumab dataset include GSE59294.
as §2

atopic dermatitis [3] = assay: Symptom score of paired patient samples (pEASI reduction in GSE32473; pre-/post-treatment EASI in GSE59294); type: in vivo, human
Experimental: Gene expression data related to ECZEMA55 genes were extracted for pre- and post-treatment samples. Values were expressed as post-treatment/pre-treatment ratio. Variable selection or feature selection was performed by clustering of 55 genes into smaller number of coherent clusters and identifying the most representative gene per cluster. Representative genes were used to build a regression model which can be used to efficiently model the data. Outcome variable was defined either as the reduction in symptom score (available as per subject pEASI reduction; pEASI=partial EASI reduction in dataset GSE32473) or as the post-treatment symptom score (taking pre-treatment symptom score as an independent covariate and per subject pre-treatment symptom scores is available, as in the dataset GSE59294). A regression model was generated and regression trees were constructed. Classification/prediction and efficiency of the model were determined. Samples in Dupilumab dataset include GSE59294. […] We therefore added pre-treatment symptom score for analysis and for generating regression models

ECZEMA55 genes = assay: Quantitative RT-PCR of ECZEMA55 genes in pre- and post-treatment skin biopsy of an AD patient (Example 7); type: in vivo, human; conditions: one AD patient; 600 mg then two 300 mg s.c. injections over 4 weeks
Experimental: An AD patient comes to the clinic with severe itch and lesions on at least 45% of their body surface. Symptoms indicate a possible diagnosis of atopic dermatitis. They are not sufficiently controlled by topical treatments like pimecrolimus and betamethasone. The patient is advised to begin dupilumab treatment. Duplimumab is administered by subcutaneous injection at recommended dosing for adult patients, which is initially at a dose of 600 mg, followed by 300 mg administered every two weeks. The patient is given one 600 mg injection followed by two 300 mg injections over the course of 4 weeks. Pre- and post-treatment samples are collected and stored in RNA later solution (Invitrogen) at −80° C.
Pre- and post-treatment skin biopsy is performed using a minimally invasive disposable punch. The skin biopsy site is swabbed with isopropyl alcohol (70%) and anesthetized with local anesthetic (1 mL of 1% lidocaine+adrenaline). Using a punch biopsy needle, a 4 mm^2 full thickness skin biopsy from the lesion is obtained and stored in RNA later solution and sent to the diagnostic lab to perform RT-PCR assay.
RNA is isolated from the tissue and subjected to quantitative RT-PCR to compare the levels of expression of the ECZEMA55 genes of the patient's tissue to normal healthy skin. […] The treatment is assessed as effective and the patient is advised to receive further dupilumab treatment doses.

atopic dermatitis [4] = conditions: Dupilumab 300 mg, GSE59294, cited from earlier work; for EASI-POST: post-treatment; for EASI-PRE: pre-treatment

Compound: C[C@H]1C[C@H]2[C@@H]3CCC4=CC(=O)C=C[C@]4(C)[C@@]3(F)[C@@H](O)C[C@]2(C)[C@@]1(O)C(=O)CO [betamethasone]
- Number of 89ADGES genes differentially regulated in treated biopsy samples compared to baseline pre-treatment condition (AD skin lesions [1]): 45 genes

Compound: CC[C@@H]1/C=C(\C)C[C@H](C)C[C@H](OC)[C@H]2O[C@@](O)(C(=O)C(=O)N3CCCC[C@H]3C(=O)O[C@H](/C(C)=C/[C@@H]3CC[C@H](Cl)[C@H](OC)C3)[C@H](C)[C@@H](O)CC1=O)[C@H](C)C[C@@H]2OC [pimecrolimus]
- Number of 89ADGES genes differentially regulated in treated biopsy samples compared to baseline pre-treatment condition (AD skin lesions [1]): 41 genes

Compound: dupilumab: fully humanized monoclonal IgG4 antibody that inhibits IL-4 and IL-13 signaling by binding the IL-4Rα subunit
- Number of 89ADGES genes differentially regulated in treated biopsy samples compared to baseline pre-treatment condition (AD skin lesions [2]): 42 genes
- EASI-post/pre (atopic dermatitis [3]; Patient 1, Dupilumab 300 mg): 0.263
- EASI-post/pre (atopic dermatitis [3]; Patient 2, Dupilumab 300 mg): 0.122
- EASI-post/pre (atopic dermatitis [3]; Patient 3, Dupilumab 300 mg): 0.044
- Direction of ECZEMA55 gene expression change after treatment (ECZEMA55 genes): opposite to gene expression in AD disease state compared to healthy skin
- Number of ECZEMA55 genes with expression changed compared to pre-treatment (ECZEMA55 genes): about 30 genes
- EASI-POST (atopic dermatitis [4]; Patient 1): 9.105
- EASI-PRE (atopic dermatitis [4]; Patient 1): 34.6
- EASI-POST (atopic dermatitis [4]; Patient 2): 3.835
- EASI-PRE (atopic dermatitis [4]; Patient 2): 31.45
- EASI-POST (atopic dermatitis [4]; Patient 3): 1.526
- EASI-PRE (atopic dermatitis [4]; Patient 3): 34.65
